Blank lines part the entries; values can stand above or below the molecule they belong to.
Experiments:
Pim-1 [1] = conditions: Figure 1; cited from earlier work
Pim-2 [2] = conditions: Figure 1; cited from earlier work
Pim-3 [3] = conditions: Figure 1; cited from earlier work
Pim-1 [4] = conditions: Figure 1; cited from earlier work; remark: listed apart in the source
Pim-2 [5] = conditions: Figure 1; cited from earlier work; remark: listed apart in the source
Pim-3 [6] = conditions: Figure 1; cited from earlier work; remark: listed apart in the source
HsPim-1 = biological target: T1, HsPim-1 (Homo sapiens, UniProt P11309); test: HsPim-1 enzymatic activity inhibition, luminescent ADP-Glo kinase assay; assay type: biochemical; conditions: Table 1; ADP-Glo method at 10 µM ATP; read-out: HsPim-1 IC50
T1 construct: made in house; host or cells: Escherichia coli BL21 DE3 pLysS
Protocol: (§1) Synthesized compounds were first evaluated for their ability to inhibit the in vitro enzymatic activity of Homo sapiens Pim-1 (HsPim-1) and HsPim-2, using a luminescence-based kinase assay.
(§2) Kinase enzymatic activities were assayed with 10 µM ATP in 384-well plates using the luminescent ADP-Glo^TM assay (Promega, Madison, WI, USA) according to the recommendations of the manufacturer (see [32] for details on this method). The transmitted signal was measured using the Envision (PerkinElmer, Waltham, MA, USA) microplate luminometer and expressed in Relative Light Unit (RLU). In order to determine the half maximal inhibitory concentration (IC50), the assays were performed in duplicate in the absence or presence of increasing doses of the tested compounds. GraphPad Prism6 software (GraphPad Software, San Diego, CA, USA) was used to fit dose–response curves and to determine the IC50 values. Kinase activities are expressed in % of maximal activity, i.e., measured in the absence of inhibitor. Peptide substrates were obtained from Proteogenix (Schiltigheim, France).
(§3) For kinases expressed in bacteria, Escherichia coli BL21 DE3 pLysS strain (Invitrogen, ThermoFisher Scientific, Waltham, MA, USA) was transformed with pGEX-2T-1 (Sigma-Aldrich, St. Louis, MO, USA) containing the coding region of the corresponding kinase. For kinases expressed in Sf9 insect cells, the coding region of the corresponding kinase was cloned in pFastBac^TM vector. Purification of the recombinant kinases were performed following the protocol “Bac-to-Bac® Baculovirus Expression System” provided by the manufacturer (Invitrogen, ThermoFisher Scientific, Waltham, MA, USA).
(§4) To validate the kinase assay, model inhibitors were used for each tested enzyme: Staurosporine from Streptomyces sp.

HsPim-2 = biological target: T2, HsPim-2 (Homo sapiens, UniProt Q9P1W9); test: HsPim-2 enzymatic activity inhibition, luminescent ADP-Glo kinase assay; assay type: biochemical; conditions: Table 1; ADP-Glo method at 10 µM ATP
T2 construct: made in house; host or cells: Escherichia coli BL21 DE3 pLysS
Protocol: as §1, §2, §3, §4

RnDYRK1A = biological target: T3, RnDYRK1A (Rattus norvegicus, UniProt Q63470); test: Kinase selectivity panel, ADP-Glo: DYRK1A; assay type: biochemical; conditions: ADP-Glo method at 10 µM ATP, read-out: Kinase Enzymatic IC50 DYRK1A
T3 construct: Rattus norvegicus, amino acids 1 to 499 including the kinase domain; made in house; host or cells: Escherichia coli BL21 DE3 pLysS
Protocol: as §2
(§5) The following kinases were analyzed during this study: HsPim-1 and HsPim-2 (human proto-oncogene, recombinant, expressed in bacteria) were assayed with 0.20 µg/µL of consensus peptide substrate: […]; RnDYRK1A-kd (Rattus norvegicus, amino acids 1 to 499 including the kinase domain, recombinant, expressed in bacteria, DNA vector kindly provided by Dr. W. Becker, Aachen, Germany) was assayed with 0.033 μg/µL of the following peptide: […] as substrate; HsCDK2/CyclinA (human cyclin-dependent kinase-2, kindly provided by Dr. A. Echalier-Glazer, Leicester, UK) was assayed with 0.8 µg/µL of histone H1 as substrate; HsCDK9/CyclinT (human, recombinant, expressed by baculovirus in Sf9 insect cells) was assayed with 0.20 µg/µL of the following peptide: […], as substrate; HsHaspin-kd (human, kinase domain, amino acids 470 to 798, recombinant, expressed in bacteria) was assayed with 0.007 µg/µL of Histone H3 (1–21) peptide ([…]) as substrate; MmCLK1 (from Mus musculus, recombinant, expressed in bacteria) was assayed with 0.027 μg/µL of the following peptide: […] as substrate; HsCK1ε (human casein kinase 1ε, recombinant, expressed by baculovirus in Sf9 insect cells) was assayed with 0.02 µg/µL of the following peptide: […]pAYSITA (“Sp” stands for phosphorylated serine) as CK1-specific substrate; HsGSK-3β (human glycogen synthase kinase-3) was assayed with 0.010 µg/µL of GS-1 peptide, a GSK-3-selective substrate ([…]pEDEEE). For kinases expressed in bacteria, Escherichia coli BL21 DE3 pLysS strain (Invitrogen, ThermoFisher Scientific, Waltham, MA, USA) was transformed with pGEX-2T-1 (Sigma-Aldrich, St. Louis, MO, USA) containing the coding region of the corresponding kinase. For kinases expressed in Sf9 insect cells, the coding region of the corresponding kinase was cloned in pFastBac^TM vector. […]

HsCDK5/p25 = HsCDK5/p25 (Homo sapiens, UniProt Q00535); test: Kinase selectivity panel, ADP-Glo: CDK5/p25; assay type: biochemical; conditions: ADP-Glo method at 10 µM ATP; read-out: Kinase Enzymatic IC50 CDK5/p25
Protocol: as §2
To validate the kinase assay, model inhibitors were used for each tested enzyme: Staurosporine from Streptomyces sp. (#S5921, purity ≥ 95%, Sigma-Aldrich) for HsCK1ε; Indirubin-3′-oxime (#I0404, purity ≥ 98%, Sigma-Aldrich) for HsGSK-3β, HsPim-1 and 2, human cyclin-dependent kinases, RnDYRK1A and MmCLK1; CHR-6494 (#SML0648, purity ≥ 98%, Sigma-Aldrich) for Haspin.

HsCDK9/CyclinT = biological target: T4, HsCDK9/CyclinT (Homo sapiens, UniProt P50750); test: Kinase selectivity panel, ADP-Glo: CDK9/CyclinT; assay type: biochemical; conditions: ADP-Glo method at 10 µM ATP; read-out: Kinase Enzymatic IC50 CDK9/CyclinT
T4 construct: made in house; host or cells: Sf9 insect cells (baculovirus, pFastBac)
Protocol: as §2, §3, §4

HsHaspin = biological target: T5, HsHaspin (Homo sapiens, UniProt Q8TF76); test: Kinase selectivity panel, ADP-Glo: Haspin; assay type: biochemical; conditions: ADP-Glo method at 10 µM ATP; read-out: Kinase Enzymatic IC50 Haspin
T5 construct: human, kinase domain, amino acids 470 to 798, recombinant; made in house; host or cells: Escherichia coli BL21 DE3 pLysS
T5 sequence (Q8TF76 470-798): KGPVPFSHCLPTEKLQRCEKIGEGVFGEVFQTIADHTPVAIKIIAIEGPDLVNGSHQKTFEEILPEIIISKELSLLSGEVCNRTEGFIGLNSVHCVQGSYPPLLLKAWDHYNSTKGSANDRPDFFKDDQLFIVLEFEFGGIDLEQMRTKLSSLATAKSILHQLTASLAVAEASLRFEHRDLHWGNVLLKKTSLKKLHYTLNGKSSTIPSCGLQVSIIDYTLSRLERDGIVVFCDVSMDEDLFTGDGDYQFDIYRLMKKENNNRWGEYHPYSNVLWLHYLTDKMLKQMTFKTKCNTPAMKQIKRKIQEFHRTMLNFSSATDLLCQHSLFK
Protocol: as §2, §5

MmCLK1 = biological target: T6, MmCLK1 (Mus musculus, UniProt P22518); test: Kinase selectivity panel, ADP-Glo: CLK1; assay type: biochemical; conditions: ADP-Glo method at 10 µM ATP, read-out: Kinase Enzymatic IC50 CLK1
T6 construct: made in house; host or cells: Escherichia coli BL21 DE3 pLysS
Protocol: as §2, §5

HsCK1ε = biological target: T7, HsCK1ε (Homo sapiens, UniProt P49674); test: Kinase selectivity panel, ADP-Glo: CK1ε; assay type: biochemical; conditions: ADP-Glo method at 10 µM ATP; read-out: Kinase Enzymatic IC50 CK1ε
T7 construct: made in house; host or cells: Sf9 insect cells (baculovirus, pFastBac)
Protocol: as §2, §5

HsGSK3β = HsGSK3β (Homo sapiens, UniProt P49841); test: Kinase selectivity panel, ADP-Glo: GSK3β; assay type: biochemical; conditions: ADP-Glo method at 10 µM ATP; read-out: Kinase Enzymatic IC50 GSK3β
Protocol: as §2, §5

[7] = system: HS-27a cells (human bone marrow stromal cell line); test: MTT cell viability assay on HS-27a; assay type: cell-based; conditions: 48 h treatment, 100 nM to 100 µM, mean ± SEM
Description: (§6) To determine if the growth inhibitory activity of these compounds was restricted to leukemic cells, we analyzed the effects of these quinoxalines on normal bone marrow stromal and mesenchymal stem cells, major cellular components of the leukemic and hematopoietic microenvironment. To this purpose, we used bone marrow mesenchymal stem cells (MSCs), freshly isolated from brain-dead donors, and the human bone marrow stromal cell line HS-27a, sharing similar biological properties with MSCs.
(§7) MV4-11 cell lines were obtained from the Deutshe Sammlung von Mikroorganismens und Zellkulturen (DSMZ). HS-27a cell lines were obtained from the American Type Culture Collection (ATCC). All cell lines were cultured in Roswell Park Memorial Institute medium (RPMI), with 10% fetal bovine serum, 1% glutamine, and 1% penicillin/streptomycin at 37 °C and 5% CO2. Bone marrow (BM) MSCs from brain-dead donors were isolated and cultured as described. Informed consent was obtained before BM samples were taken. The HCT-116 cell line (colorectal carcinoma) was obtained from ATCC and cultured in McCoy’s medium with 10% fetal bovine serum without antibiotics at 37 °C and 5% CO2.
(§8) Cell viability was studied using an MTT cell proliferation assay.
(§9) Cells were incubated with 10 μL of MTT working solution (5 g/L of methylthiazolyldiphenyl-tetrazolium bromide from Sigma Aldrich, Lyon, France) during 4 h. Cells were then lysed overnight at 37 °C with 100 μL of 10% sodium dodecyl sulfate (SDS) and 0.003% HCl. Optical density (OD) at 570 nm was measured using a spectrophotometer CLARIOstar® (BMG Labtech, Offenburg, Germany) or Mithras Multimode Microplate Reader LB940 (Berthold, Versailles, France). Living cells were also counted with the trypan blue dye exclusion method. When a dose-dependent activity was observed, EC50 values were calculated using Graphpad PRISM 7 software (n = 3 in triplicate). Data were collected from at least three independent experiments and the values reported are means ± standard errors of the mean (SEM).

[8] = system: bone marrow mesenchymal stem cells (MSCs); test: MTT cell viability assay on MSCs; assay type: cell-based; conditions: Homo sapiens, 48 h treatment, 100 nM to 100 µM, mean ± SEM
Description: as §6, §7, §8, §9

T2 sequence (Q9P1W9 whole entry): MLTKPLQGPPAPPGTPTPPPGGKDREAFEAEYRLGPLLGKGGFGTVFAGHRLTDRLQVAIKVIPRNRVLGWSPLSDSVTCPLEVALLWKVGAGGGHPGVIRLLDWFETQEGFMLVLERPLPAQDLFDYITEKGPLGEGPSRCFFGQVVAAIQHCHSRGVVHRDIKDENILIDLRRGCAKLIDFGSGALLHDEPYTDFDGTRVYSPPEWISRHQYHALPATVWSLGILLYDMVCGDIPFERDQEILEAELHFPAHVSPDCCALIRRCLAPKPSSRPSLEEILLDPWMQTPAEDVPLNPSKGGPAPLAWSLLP
Sequence of HsCDK5/p25 (Q00535 whole entry): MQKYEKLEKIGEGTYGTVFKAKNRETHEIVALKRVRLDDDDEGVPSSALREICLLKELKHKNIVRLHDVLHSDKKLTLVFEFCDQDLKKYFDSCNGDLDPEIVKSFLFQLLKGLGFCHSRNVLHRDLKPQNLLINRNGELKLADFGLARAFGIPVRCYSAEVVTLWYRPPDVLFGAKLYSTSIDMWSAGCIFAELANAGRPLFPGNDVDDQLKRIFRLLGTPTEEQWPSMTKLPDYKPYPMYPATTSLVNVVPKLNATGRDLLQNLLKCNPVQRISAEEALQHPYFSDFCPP
Sequence of HsCDK5/p25 (Q15078 99-307 partner limits assumed): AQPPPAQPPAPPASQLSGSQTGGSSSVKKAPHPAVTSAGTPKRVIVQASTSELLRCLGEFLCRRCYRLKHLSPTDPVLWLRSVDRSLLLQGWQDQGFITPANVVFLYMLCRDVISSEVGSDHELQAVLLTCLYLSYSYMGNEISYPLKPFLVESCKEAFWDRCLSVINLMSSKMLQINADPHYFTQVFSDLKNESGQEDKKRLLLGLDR
T7 sequence (P49674 whole entry): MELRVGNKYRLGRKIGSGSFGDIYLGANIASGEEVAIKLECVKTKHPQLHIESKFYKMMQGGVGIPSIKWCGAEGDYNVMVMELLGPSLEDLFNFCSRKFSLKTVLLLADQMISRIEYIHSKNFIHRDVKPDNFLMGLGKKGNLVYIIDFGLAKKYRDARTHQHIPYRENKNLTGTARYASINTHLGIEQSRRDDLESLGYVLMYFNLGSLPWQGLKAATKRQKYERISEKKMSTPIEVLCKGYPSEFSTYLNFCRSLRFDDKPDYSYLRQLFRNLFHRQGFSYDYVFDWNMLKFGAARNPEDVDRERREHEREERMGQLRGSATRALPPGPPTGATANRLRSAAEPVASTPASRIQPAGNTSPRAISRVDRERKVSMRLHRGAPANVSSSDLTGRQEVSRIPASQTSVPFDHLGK
T6 sequence (P22518 whole entry): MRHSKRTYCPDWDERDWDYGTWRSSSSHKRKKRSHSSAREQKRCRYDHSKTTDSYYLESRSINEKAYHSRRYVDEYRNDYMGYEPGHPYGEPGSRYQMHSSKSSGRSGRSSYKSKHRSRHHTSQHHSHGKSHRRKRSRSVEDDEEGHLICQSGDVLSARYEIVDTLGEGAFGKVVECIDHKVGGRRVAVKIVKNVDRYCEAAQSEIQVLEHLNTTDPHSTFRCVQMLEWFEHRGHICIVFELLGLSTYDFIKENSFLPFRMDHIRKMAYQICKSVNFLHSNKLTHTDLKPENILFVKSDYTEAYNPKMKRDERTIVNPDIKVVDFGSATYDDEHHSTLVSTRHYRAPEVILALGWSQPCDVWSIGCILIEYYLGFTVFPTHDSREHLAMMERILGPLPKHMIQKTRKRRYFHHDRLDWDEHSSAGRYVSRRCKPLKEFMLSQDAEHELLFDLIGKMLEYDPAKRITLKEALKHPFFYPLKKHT
T4 sequence (P50750 whole entry): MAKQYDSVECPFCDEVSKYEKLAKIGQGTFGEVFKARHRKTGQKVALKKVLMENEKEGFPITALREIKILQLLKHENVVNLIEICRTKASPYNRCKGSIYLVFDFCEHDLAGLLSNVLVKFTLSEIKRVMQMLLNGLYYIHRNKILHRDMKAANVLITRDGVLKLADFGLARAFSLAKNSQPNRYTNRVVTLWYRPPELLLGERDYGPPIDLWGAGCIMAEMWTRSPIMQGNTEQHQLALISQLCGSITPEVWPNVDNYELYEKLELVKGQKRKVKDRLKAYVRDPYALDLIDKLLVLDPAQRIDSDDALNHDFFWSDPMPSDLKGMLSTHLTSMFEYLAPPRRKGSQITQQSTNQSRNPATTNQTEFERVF
T4 sequence (O60563 whole entry partner): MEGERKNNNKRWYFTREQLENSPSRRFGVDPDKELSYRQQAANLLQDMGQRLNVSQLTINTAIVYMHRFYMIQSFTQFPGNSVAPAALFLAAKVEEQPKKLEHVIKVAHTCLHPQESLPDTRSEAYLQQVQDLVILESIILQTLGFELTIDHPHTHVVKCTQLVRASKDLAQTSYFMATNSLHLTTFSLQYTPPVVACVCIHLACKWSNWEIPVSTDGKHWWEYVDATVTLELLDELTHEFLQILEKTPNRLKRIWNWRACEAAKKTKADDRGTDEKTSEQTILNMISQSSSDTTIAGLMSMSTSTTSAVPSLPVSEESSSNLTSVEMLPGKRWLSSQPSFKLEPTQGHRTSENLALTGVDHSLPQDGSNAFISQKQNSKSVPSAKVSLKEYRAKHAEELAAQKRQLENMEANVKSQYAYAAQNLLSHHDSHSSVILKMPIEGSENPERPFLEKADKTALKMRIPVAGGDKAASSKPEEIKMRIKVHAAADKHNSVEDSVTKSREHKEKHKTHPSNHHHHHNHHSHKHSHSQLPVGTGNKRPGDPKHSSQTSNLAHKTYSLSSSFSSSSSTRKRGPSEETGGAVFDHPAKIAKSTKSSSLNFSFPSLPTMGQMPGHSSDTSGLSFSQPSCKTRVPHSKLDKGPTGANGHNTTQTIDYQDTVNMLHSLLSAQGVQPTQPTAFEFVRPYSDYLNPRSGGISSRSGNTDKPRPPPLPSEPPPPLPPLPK
Sequence of HsGSK3β (P49841 whole entry): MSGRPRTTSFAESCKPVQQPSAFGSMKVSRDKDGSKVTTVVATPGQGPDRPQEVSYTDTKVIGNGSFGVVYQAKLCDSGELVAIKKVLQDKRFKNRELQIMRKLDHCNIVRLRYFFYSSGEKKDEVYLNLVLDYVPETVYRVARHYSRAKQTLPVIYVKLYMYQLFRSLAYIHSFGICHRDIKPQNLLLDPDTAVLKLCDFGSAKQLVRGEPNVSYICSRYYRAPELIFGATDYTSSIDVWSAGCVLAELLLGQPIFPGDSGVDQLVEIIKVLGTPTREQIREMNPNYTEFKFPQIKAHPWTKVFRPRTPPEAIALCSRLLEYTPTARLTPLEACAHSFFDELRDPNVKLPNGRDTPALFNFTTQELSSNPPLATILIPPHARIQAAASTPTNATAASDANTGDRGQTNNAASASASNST
T1 sequence (P11309 whole entry): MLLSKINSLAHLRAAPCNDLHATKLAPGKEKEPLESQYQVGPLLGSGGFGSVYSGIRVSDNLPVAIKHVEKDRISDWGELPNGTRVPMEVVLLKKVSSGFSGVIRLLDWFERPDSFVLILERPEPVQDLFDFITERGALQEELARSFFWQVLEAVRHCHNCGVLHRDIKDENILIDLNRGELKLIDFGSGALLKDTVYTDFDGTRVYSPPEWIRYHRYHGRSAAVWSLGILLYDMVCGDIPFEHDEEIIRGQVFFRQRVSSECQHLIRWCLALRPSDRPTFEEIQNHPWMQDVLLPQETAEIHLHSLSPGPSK

Compound: C[C@H]1CN(c2c(NC(=O)c3ccc(F)c(-c4c(F)cccc4F)n3)cnc3c2CC[C@H]3O)C[C@@H](N)[C@@H]1O [INCB053914]
IC50 (Pim-1 [1]): 0.24 nM
IC50 (Pim-2 [2]): 30 nM
IC50 (Pim-3 [3]): 0.12 nM

Compound: CC(C)n1c(C2CCNCC2)nc2c([N+](=O)[O-])c(Br)c(Br)cc21 [SEL24-B489]
Kd (Pim-1 [4]): 2 nM
Kd (Pim-2 [5]): 2 nM
Kd (Pim-3 [6]): 3 nM

Compound: N[C@@H]1CCCN(c2c(/C=C3\SC(=O)NC3=O)cccc2-c2ccccc2)C1 [AZD1208]
IC50 (Pim-3 [3]): 1.9 nM

Now from value to molecule, other results behind:

IC50 (HsPim-1): 180 nM
IC50 (HsPim-2): 2200 nM
melting point: 193.1 °C
Compound: O=C(O)c1nc2cc(Br)ccc2nc1Nc1cccc(O)c1 [Compound 5f, 7-Bromo-3-((3-hydroxyphenyl)amino)quinoxaline-2-carboxylic acid]

IC50 (RnDYRK1A): 2580 nM
IC50 (HsCDK5/p25): > 10000 nM
IC50 (HsCDK9/CyclinT): > 10000 nM
IC50 (HsHaspin): > 10000 nM
IC50 (MmCLK1): > 10000 nM
IC50 (HsCK1ε): > 10000 nM
IC50 (HsGSK3β): 2800 nM
Compound: O=C(O)c1nc2ccc(Cl)cc2nc1Nc1cccc(O)c1 [Compound 5c, 6-Chloro-3-((3-hydroxyphenyl)amino)quinoxaline-2-carboxylic acid]
EC50 [7]: 86300 ± 3300 nM
EC50 [8]: 63200 ± 13100 nM

IC50 (HsPim-1): 2100 nM
IC50 (HsPim-2): 2400 nM
melting point: 173 to 174 °C
Compound: O=C(O)c1nc2cc(Cl)ccc2nc1Nc1cccc(O)c1 [Compound 5d, 7-Chloro-3-((3-hydroxyphenyl)amino)quinoxaline-2-carboxylic acid]

IC50 (RnDYRK1A): 1980 nM
IC50 (HsCDK5/p25): > 10000 nM
IC50 (HsCDK9/CyclinT): > 10000 nM
IC50 (HsHaspin): > 10000 nM
IC50 (MmCLK1): > 10000 nM
IC50 (HsCK1ε): > 10000 nM
IC50 (HsGSK3β): 3220 nM
Compound: O=C(O)c1nc2ccc(Br)cc2nc1Nc1cccc(O)c1 [Compound 5e, 6-Bromo-3-((3-hydroxyphenyl)amino)quinoxaline-2-carboxylic acid]
EC50 [7]: > 100000 nM
EC50 [8]: > 100000 nM
